Our source for the solubility (mole fraction) values is BigSolDB 2.1.

The conditions of the data set: in water.

The term solubility (mole fraction) denotes the moles of solute divided by all moles in the saturated solution. Turning to `CCCCCCCCCc1ccc(O)cc1`, the solubility (mole fraction) runs as follows: (298.1 K) 4e-08; (303.1 K) 5e-08; (310.1 K) 7e-08; (318.1 K) 1.4e-07; (328.1 K) 2e-07.
The compound `CCCCCCCCc1ccc(O)cc1` had a solubility (mole fraction) (298.1 K) of 2.9e-07; a solubility (mole fraction) (303.1 K) of 3.4e-07; a solubility (mole fraction) (310.1 K) of 4.7e-07; a solubility (mole fraction) (318.1 K) of 6.4e-07; a solubility (mole fraction) (328.1 K) of 8.4e-07.
The matching figures for `CC(C)(C)CC(C)(C)c1ccc(O)cc1`: 1.32e-06, 1.55e-06, 1.91e-06, 2.52e-06 and 3.83e-06.
